From patent publication EP4702986A1, “POLYPEPTIDE AND USE THEREOF” (Biocells (Beijing) Biotech Co., Ltd., priority 2023, dated 2024)
Numbered stars: 1 amine (or outer) side, 2 acyl side, 3 side chain; on linkers, the order of the positions; unused ones are H or OH. Side chains are listed from the residue outwards. Peptide text beside a SMILES is read from it. * marks the point of attachment. X1 = C[C@H](NC(=O)[C@@H]1CCCN1C(=O)[C@@H](N)CSC1CC(=O)N(CCC(=O)*)C1=O)C(=O)N[C@@H](CCCCN)C(=O)O; γGlu = O=C(O)[C@H](CCC(=O)[*:2])N[*:1]; Fumaroyl = O=C(O)/C=C/C(=O)*; Suc = O=C(CCC(=O)[*:2])[*:1]; Lauroyl = CCCCCCCCCCCC(=O)*; AEEA = NCCOCCOCC(=O)O

Experiments:
mouse ETB receptor = target: T1, mouse ETB receptor (Mus musculus, UniProt P48302); assay: Determination of EC50s of polypeptides against mouse ETB receptor; format: cell-based; settings: Table 9, mouse ETB receptor; read-out: DETAR Agonist Activity EC50
T1 construct: expressed in transfected cells
T1 sequence (P48302 27-442): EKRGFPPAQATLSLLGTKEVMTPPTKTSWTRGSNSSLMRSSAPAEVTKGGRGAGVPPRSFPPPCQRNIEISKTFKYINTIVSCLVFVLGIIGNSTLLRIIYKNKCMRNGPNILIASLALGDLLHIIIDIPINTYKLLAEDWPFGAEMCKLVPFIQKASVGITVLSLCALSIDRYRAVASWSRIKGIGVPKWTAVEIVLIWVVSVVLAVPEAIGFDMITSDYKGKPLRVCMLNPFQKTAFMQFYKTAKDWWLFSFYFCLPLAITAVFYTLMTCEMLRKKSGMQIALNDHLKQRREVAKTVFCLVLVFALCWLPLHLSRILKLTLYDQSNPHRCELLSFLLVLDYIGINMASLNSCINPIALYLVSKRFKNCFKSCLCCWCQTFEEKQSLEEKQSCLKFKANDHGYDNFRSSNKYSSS

rat model of pMACO [1] = assay: mRS-6 scoring in rat model of pMACO; format: in vivo, SD rats; parameters: mRS-7D / mRS-14D / mRS-21D / mRS-30D: scale not given here; settings: for mRS-7D: day 7; for mRS-14D: day 14; for mRS-21D: day 21; for mRS-30D: day 30
From the text: (§1) Male SD rats, weighing 280-300 g, were used and acclimatized for at least 3 days. Focal cerebral ischemia was induced by middle cerebral artery occlusion with a suture method under isoflurane anesthesia. The animals were placed in a supine position, a midline incision was made, and the right common carotid artery, external carotid artery, and internal carotid artery were exposed. A 4.0 monofilament nylon suture was advanced from the external carotid artery toward the internal carotid artery lumen until resistance was felt (~20 mm), indicating middle cerebral artery occlusion. The nylon filament was allowed to stay in place to create a permanent model of focal cerebral ischemia. The day of modeling was defined as D1, the next day as D2, and so on. Since the experiment was not be completed in a single batch, and in order to prevent accidental errors, all operations in this experiment had to follow the principle of parallel operation, i.e., the experiment on each day needed to include animals from each group. Sequential numbering for surgical modeling was obtained by sorting the animals according to their body weight before the experiment. After the surgery, successfully modeled pMCAO rats were randomly assigned into a model group and various treatment groups. The detailed grouping of the experiment was as follows: (1) 15 rats in the 5 µg/Kg IRL1620 group with 9 administrations over 3 days; (2) 15 rats in the 6.6 µg/Kg BX225 group with 9 administrations over 3 days; (3) 15 rats in the 19.8 µg/Kg BX225 group with 3 administrations over 3 days; (4) 15 rats in the model (normal saline) group; and (5) 6 rats in the sham group (the sham group underwent the same procedure without vascular ligation and suture insertion). The administration was performed via tail vein injection (iv) with an administration volume of 2 mL/kg. The first administration was 2 hours after the surgery. Administration frequencies were single and multiple administrations per day according to the experimental design. Administrations were performed on D1, D3, and D6, respectively, as detailed in Table 22. The model group and the sham group were given the same volume of vehicle normal saline.

rat model of pMACO [2] = assay: Garcia JH scoring in rat model of pMACO; format: in vivo, SD rats; parameters: 5 min Spontaneous Activity / Body Symmetry / Forelimb Extension Movement / Cage Climbing / Body Tactile Response on Both Sides / Beard Touch Reaction on Both Sides / Total Score: scale not given here; settings: for 5 min Spontaneous Activity / Beard Touch Reaction on Both Sides / Body Symmetry / Body Tactile Response on Both Sides / Cage Climbing / Forelimb Extension Movement / Total Score: Garcia JH score
From the text: as §1

rat model of pMACO [3] = assay: Foot fault test in rat model of pMACO; format: in vivo, SD rats; settings: BX34 7 µg/Kg, BX48 5 µg/Kg
From the text: Male SD rats weighing 280-300 g were used and acclimated for at least 3 days. Focal cerebral ischemia was induced by middle cerebral artery occlusion with a suture method under isoflurane anesthesia. The animals were placed in a secure supine position, and a midline incision was made to expose the right common carotid artery, external carotid artery, and internal carotid artery. A 4.0 monofilament nylon suture was advanced from the external carotid artery toward the internal carotid artery lumen until resistance was felt ( ~ 20 mm), indicating middle cerebral artery occlusion. The nylon filament was allowed to stay in place to create a permanent model of focal cerebral ischemia. Successfully modeled rats were randomly assigned to four groups: a solvent (normal saline) group (n=10), a 7 µg/Kg BX-34 group (n=10), a 5 µg/Kg BX-48 group (n=10), and a 5 µg/Kg IRL1620 group (n=10). Each group was administered once at 2 hours, 4 hours, and 6 hours, respectively, after modeling, for a total of three administrations. Grip strength was measured before administration and at 24 hours and on D3 and D7 after administration. A rotarod test and a foot fault test were performed before administration and at 24 hours and day 7 after administration. During the rotarod test, time and distance were recorded, and ratios of the measurement at 24 hours and the measurement at D7 to the pretest measurement were used as analysis indicators. The specific method for the foot fault test was as follows. The rats were placed on an elevated grid floor (29×29 cm, grid opening: 3 cm^2) for 2 minutes, and the number of foot faults (when a forelimb fell through the grid) and the total steps were recorded. % Foot fault = (the number of forelimb faults/the total number of forelimb steps) × 100.

[4] = 3Time regimen: IRL1620 5 µg/Kg, BX225 6.6 µg/Kg
[5] = pMCAO rats, 6.6 µg/Kg three-dose group, iv
[6] = Day 21, 19.8 µg/Kg, 1Time regimen
[7] = Day 21, 3Time regimen: IRL1620 5 µg/Kg, BX225 6.6 µg/Kg
[8] = Day 30, 19.8 µg/Kg, 1Time regimen
[9] = Day 30, 3Time regimen: IRL1620 5 µg/Kg, BX225 6.6 µg/Kg

SMILES: CC[C@H](C)[C@H](NC(=O)[C@H](CC(=O)O)NC(=O)[C@H](CCCCNC(=O)COCCOCCNC(=O)CCN1C(=O)CC(SC[C@H](N)C(=O)N2CCC[C@H]2C(=O)N[C@@H](C)C(=O)N[C@@H](CCCCN)C(=O)O)C1=O)NC(=O)[C@H](Cc1c[nH]cn1)NC(=O)[C@H](C)NC(=O)[C@H](Cc1ccccc1)NC(=O)[C@H](Cc1ccc(O)cc1)NC(=O)[C@@H](NC(=O)[C@H](C)NC(=O)[C@H](CCC(=O)O)NC(=O)[C@H](CCC(=O)O)NC(=O)[C@H](CC(=O)O)NC(=O)/C=C/C(=O)O)C(C)C)C(=O)N[C@H](C(=O)N[C@@H](Cc1c[nH]c2ccccc12)C(=O)O)[C@@H](C)CC (some centres unmarked) [BX-95] (Fumaroyl-DEEAVYFAHK([AEEA-X1])DIIW-OH)
- EC50 (mouse ETB receptor): 22.1 nM

SMILES: CCCCCCCCCCCC(=O)N[C@@H](CCC(=O)NCCOCCOCC(=O)NCCCC[C@H](NC(=O)[C@H](Cc1c[nH]cn1)NC(=O)[C@H](C)NC(=O)[C@H](Cc1ccccc1)NC(=O)[C@H](Cc1ccc(O)cc1)NC(=O)[C@@H](NC(=O)[C@H](C)NC(=O)[C@H](CCC(=O)O)NC(=O)[C@H](CCC(=O)O)NC(=O)[C@H](CC(=O)O)NC(=O)/C=C/C(=O)O)C(C)C)C(=O)N[C@@H](CC(=O)O)C(=O)N[C@H](C(=O)N[C@H](C(=O)N[C@@H](Cc1c[nH]c2ccccc12)C(=O)O)[C@@H](C)CC)[C@@H](C)CC)C(=O)O [BX-225] (Fumaroyl-DEEAVYFAHK([AEEA-γGlu-Lauroyl])DIIW-OH)
- mRS-7D (rat model of pMACO [1]; 19.8 µg/Kg, 1Time regimen): 3.14±2.14
- mRS-7D (rat model of pMACO [1]; [4]): 1.67±0.50
- mRS-14D (rat model of pMACO [1]; 19.8 µg/Kg, 1Time regimen): 3.90±2.61
- mRS-14D (rat model of pMACO [1]; [4]): 1.17±0.50
- mRS-21D (rat model of pMACO [1]; 19.8 µg/Kg, 1Time regimen): 3.73±2.81
- mRS-21D (rat model of pMACO [1]; [4]): 0.75±0.41
- mRS-30D (rat model of pMACO [1]; 19.8 µg/Kg, 1Time regimen): 3.65±2.91
- mRS-30D (rat model of pMACO [1]; [4]): 0.50±0.31
- mRS-6 score on day 14 compared with the normal saline group and the IRL1620 three-dose group (rat model of pMACO [1]; [5]): close to a significant difference
- mRS-6 scores, course from day 7, day 14, day 21, to day 30 (rat model of pMACO [1]; [5]): continuous improvement
- mRS-6 scores on days 7, 21, and 30 compared with the normal saline group and the IRL1620 three-dose group (rat model of pMACO [1]; pMCAO rats, 6.6 µg/Kg three-dose group, iv, P<0.05): significant differences
- 5 min Spontaneous Activity (rat model of pMACO [2]; [6]): 1.17±1.47
- Beard Touch Reaction on Both Sides (rat model of pMACO [2]; [6]): 1.63±0.80
- Body Symmetry (rat model of pMACO [2]; [6]): 0.63±0.80
- Body Tactile Response on Both Sides (rat model of pMACO [2]; [6]): 1.60±0.77
- Cage Climbing (rat model of pMACO [2]; [6]): 1.69± 0.85
- Forelimb Extension Movement (rat model of pMACO [2]; [6]): 0.80±1.01
- Total Score (rat model of pMACO [2]; [6]): 7.51± 5.58
- 5 min Spontaneous Activity (rat model of pMACO [2]; [7]): 2.89±0.33
- Beard Touch Reaction on Both Sides (rat model of pMACO [2]; [7]): 2.70±0.25
- Body Symmetry (rat model of pMACO [2]; [7]): 1.74±0.48
- Body Tactile Response on Both Sides (rat model of pMACO [2]; [7]): 2.50±0.23
- Cage Climbing (rat model of pMACO [2]; [7]): 2.30± 0.71
- Forelimb Extension Movement (rat model of pMACO [2]; [7]): 1.87±0.52
- Total Score (rat model of pMACO [2]; [7]): 13.99 ±1.49
- 5 min Spontaneous Activity (rat model of pMACO [2]; [8]): 1.25±1.54
- Beard Touch Reaction on Both Sides (rat model of pMACO [2]; [8]): 1.50±0.65
- Body Symmetry (rat model of pMACO [2]; [8]): 0.78±0.98
- Body Tactile Response on Both Sides (rat model of pMACO [2]; [8]): 1.46±0.59
- Cage Climbing (rat model of pMACO [2]; [8]): 1.79±0.98
- Forelimb Extension Movement (rat model of pMACO [2]; [8]): 0.93+1.15
- Total Score (rat model of pMACO [2]; [8]): 7.71± 5.82
- 5 min Spontaneous Activity (rat model of pMACO [2]; [9]): 3.00±0.00
- Beard Touch Reaction on Both Sides (rat model of pMACO [2]; [9]): 2.39±0.13
- Body Symmetry (rat model of pMACO [2]; [9]): 2.07±0.29
- Body Tactile Response on Both Sides (rat model of pMACO [2]; [9]): 2.29±0.18
- Cage Climbing (rat model of pMACO [2]; [9]): 2.81±0.15
- Forelimb Extension Movement (rat model of pMACO [2]; [9]): 2.25±0.23
- Total Score (rat model of pMACO [2]; [9]): 14.81 ±0.56
- Garcia JH scores on days 21 and 30 compared with the normal saline group (rat model of pMACO [2]; [5]): statistical differences
- Garcia JH scores, course from day 7, day 14, day 21, to day 30 (rat model of pMACO [2]; [5]): continuous improvement trend

SMILES: CC[C@H](C)[C@H](NC(=O)[C@H](CC(=O)O)NC(=O)[C@H](CC(C)C)NC(=O)[C@H](Cc1c[nH]cn1)NC(=O)[C@H](C)NC(=O)[C@H](Cc1ccccc1)NC(=O)[C@H](Cc1ccc(O)cc1)NC(=O)[C@@H](NC(=O)[C@H](C)NC(=O)[C@H](CCC(=O)O)NC(=O)[C@H](CCC(=O)O)NC(=O)[C@H](CC(=O)O)NC(=O)CCC(=O)O)C(C)C)C(=O)N[C@H](C(=O)N[C@@H](Cc1c[nH]c2ccccc12)C(=O)O)[C@@H](C)CC [IRL1620, reference compound] (Suc-DEEAVYFAHLDIIW-OH)
- mRS-7D (rat model of pMACO [1]; [4]): 2.54±2.03
- mRS-14D (rat model of pMACO [1]; [4]): 2.77±2.66
- mRS-21D (rat model of pMACO [1]; [4]): 2.72±2.71
- mRS-30D (rat model of pMACO [1]; [4]): 2.52±2.87
- 5 min Spontaneous Activity (rat model of pMACO [2]; [7]): 1.77±1.48
- Beard Touch Reaction on Both Sides (rat model of pMACO [2]; [7]): 1.95±0.82
- Body Symmetry (rat model of pMACO [2]; [7]): 0.90±0.80
- Body Tactile Response on Both Sides (rat model of pMACO [2]; [7]): 1.79±0.70
- Cage Climbing (rat model of pMACO [2]; [7]): 2.03± 0.86
- Forelimb Extension Movement (rat model of pMACO [2]; [7]): 1.26±1.05
- Total Score (rat model of pMACO [2]; [7]): 9.70± 5.58
- Foot fault Analysis Mean of 7D (rat model of pMACO [3]; percentage of foot faults at 7D, IRL1620 5 µg/Kg, administered 3 times (2, 4, 6 hours after modeling)): 4.3%+3.14%
- Foot fault Analysis Mean of 24h (rat model of pMACO [3]; percentage of foot faults at 24h, IRL1620 5 µg/Kg, administered 3 times (2, 4, 6 hours after modeling)): 14.2%±17.61%
- Foot fault Analysis Mean of Pretest (rat model of pMACO [3]; percentage of foot faults, pretest (baseline before administration), groups IRL1620 5 µg/Kg, 3 times): 1%±2%
